In the assay the target is T1, IL17-RE-IL-17C (Homo sapiens, UniProt Q8NFR9+Q9P0M4).
T1 sequence (Q9P0M4 whole entry): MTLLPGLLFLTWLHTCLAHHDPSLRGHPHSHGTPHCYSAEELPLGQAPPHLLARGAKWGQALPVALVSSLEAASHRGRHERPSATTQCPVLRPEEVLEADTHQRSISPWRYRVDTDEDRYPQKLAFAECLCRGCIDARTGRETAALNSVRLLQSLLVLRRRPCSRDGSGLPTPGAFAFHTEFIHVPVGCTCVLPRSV
T1 sequence (Q8NFR9 whole entry): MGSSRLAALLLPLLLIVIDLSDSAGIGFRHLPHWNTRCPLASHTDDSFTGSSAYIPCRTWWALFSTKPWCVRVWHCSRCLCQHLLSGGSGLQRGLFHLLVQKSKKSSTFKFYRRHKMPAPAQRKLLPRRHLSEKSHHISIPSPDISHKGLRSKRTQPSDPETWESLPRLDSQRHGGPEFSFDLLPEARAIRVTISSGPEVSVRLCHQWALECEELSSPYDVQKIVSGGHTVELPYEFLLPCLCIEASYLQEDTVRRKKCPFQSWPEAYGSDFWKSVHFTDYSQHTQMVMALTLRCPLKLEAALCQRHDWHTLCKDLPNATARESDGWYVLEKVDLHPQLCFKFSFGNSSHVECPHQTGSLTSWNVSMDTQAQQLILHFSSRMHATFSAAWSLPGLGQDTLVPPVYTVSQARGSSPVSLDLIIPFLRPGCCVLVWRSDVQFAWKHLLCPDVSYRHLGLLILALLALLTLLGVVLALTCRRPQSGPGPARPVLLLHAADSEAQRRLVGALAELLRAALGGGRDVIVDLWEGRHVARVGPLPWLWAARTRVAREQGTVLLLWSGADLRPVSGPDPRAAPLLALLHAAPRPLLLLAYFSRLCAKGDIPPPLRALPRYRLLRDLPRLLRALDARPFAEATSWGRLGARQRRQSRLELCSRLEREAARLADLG
The assay can be described thus: Inhibition of IL-17C/IL-17RE interaction (unknown origin) incubated for 1.5 hrs by ELISA method. Format: protein-complex assay. (In general: ELISA stands for enzyme-linked immunosorbent assay.)

Positions of bridges follow the written chain, without caps; N, C: chain ends. Residues, ends and D or L forms follow the SMILES beside them.

As usually defined, the IC50 is the point on the concentration scale where inhibition reaches its midpoint. The compound `CC[C@H](C)[C@@H]1NC(=O)[C@H](CCCNC(=N)N)NC(=O)[C@H](Cc2ccc(O)cc2)NC(=O)[C@H](Cc2ccc(O)cc2)NC(=O)[C@H](Cc2c[nH]cn2)NC(=O)[C@H](Cc2c[nH]cn2)NC(=O)[C@H](Cc2ccc(O)cc2)NC(=O)CSC[C@@H](C(=O)NCC(N)=O)NC(=O)[C@H](CO)NC(=O)[C@H](CC(C)C)NC(=O)[C@H](CCC(=O)O)NC(=O)CNC(=O)[C@H](Cc2ccc(O)cc2)NC(=O)[C@H](CC(C)C)NC1=O` (stereo in doubt) yielded a 50% inhibitory concentration (IC50) of over 30000 nM.

`CC(C)C[C@@H]1NC(=O)[C@H](CO)NC(=O)CNC(=O)[C@H](Cc2ccc(O)cc2)NC(=O)[C@H](CC(C)C)NC(=O)[C@H](CO)NC(=O)[C@H](CCCNC(=N)N)NC(=O)[C@H](Cc2ccc(O)cc2)NC(=O)[C@H](Cc2ccc(O)cc2)NC(=O)[C@H](C(C)C)NC(=O)[C@H](Cc2cnc[nH]2)NC(=O)[C@H](Cc2ccc(O)cc2)NC(=O)CSC[C@@H](C(=O)NCC(N)=O)NC(=O)CNC1=O` ({CH2CO}-YHVYYRSLYGSLGCG-NH2; thioether N-14) registered an IC50 of 5.4 nM.

The values are drawn from ChEMBL document CHEMBL5360618, “PepScaf: Harnessing Machine Learning with In Vitro Selection toward De Novo Macrocyclic Peptides against IL-17C/IL-17RE Interaction” (J Med Chem, 2023).
